In ChEMBL document CHEMBL3856234, “Development of Multifunctional Pyrimidinylthiourea Derivatives as Potential Anti-Alzheimer Agents” (J Med Chem, 2016):
Active and inactive are the calls of the source. The rule behind the calls is not given here.

Experiments:
[1] = Cytotoxicity against human SH-SY5Y cells assessed as reduction in cell viability at 100 uM measured after 24 hrs by MTT assay; format: toxicity, cell-based
Rattus norvegicus [2] = organism: Rattus norvegicus; test: Selectivity index, ratio of IC50 for rat serum BuChE to IC50 for rat cortex AChE
[3] = Cytotoxicity against human SH-SY5Y cells assessed as reduction in cell viability at 10 and 30 uM measured after 24 hrs by MTT assay; format: toxicity, cell-based
[4] = Inhibition of rat serum BuChE using butyrylthiocholine as substrate measured after 20 mins by Ellman's method
Acetylcholinesterase = molecular target: T1, Acetylcholinesterase (Rattus norvegicus, UniProt P37136); test: Inhibition of rat cortex AChE using acetylthiocholine iodide as substrate measured after 20 mins by Ellman's method
T1 sequence (P37136 whole entry): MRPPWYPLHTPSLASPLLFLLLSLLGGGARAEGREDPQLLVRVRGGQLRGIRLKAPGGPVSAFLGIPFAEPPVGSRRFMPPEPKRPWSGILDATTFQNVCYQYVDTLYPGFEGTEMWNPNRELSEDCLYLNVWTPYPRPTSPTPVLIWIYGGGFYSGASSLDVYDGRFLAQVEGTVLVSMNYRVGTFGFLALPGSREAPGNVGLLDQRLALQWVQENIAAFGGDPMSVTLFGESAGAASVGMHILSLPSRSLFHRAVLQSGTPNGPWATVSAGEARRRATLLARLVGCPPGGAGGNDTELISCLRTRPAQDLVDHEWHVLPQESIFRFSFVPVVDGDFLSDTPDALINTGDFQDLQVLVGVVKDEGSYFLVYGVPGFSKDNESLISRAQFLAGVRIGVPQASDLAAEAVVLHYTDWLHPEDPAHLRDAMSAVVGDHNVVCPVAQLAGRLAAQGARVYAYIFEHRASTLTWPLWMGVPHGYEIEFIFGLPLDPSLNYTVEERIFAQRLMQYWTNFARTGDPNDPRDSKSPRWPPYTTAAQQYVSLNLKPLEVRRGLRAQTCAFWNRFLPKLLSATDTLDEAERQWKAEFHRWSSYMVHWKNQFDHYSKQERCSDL

[5] = Inhibition of cupric ion-induced aggregation of amyloid beta (1 to 42) (unknown origin) at compound:amyloid beta (1 to 42):Cu2+ ratio of 2:1:1 measured after 24 hrs by TEM analysis
[6] = molecular target: T2, Acetylcholinesterase (Rattus norvegicus) (UniProt P37136); test: Inhibition of rat cortex AChE at 40 uM using acetylthiocholine iodide as substrate measured after 20 mins by Ellman's method relative to control
T2 sequence (whole entry): T1 sequence (P37136 whole entry)

Rattus norvegicus [7] = organism: Rattus norvegicus; test: Inhibition of rat serum BuChE at 40 uM using butyrylthiocholine as substrate measured after 20 mins by Ellman's method relative to control
[8] = Antioxidant activity assessed as trolox equivalent of AAPH radical scavenging activity preincubated for 10 mins followed by AAPH challenge measured every min for 180 mins by ORAC-FL assay; format: functional
[9] = Permeability of the compound in PBS/EtOH (7:3) buffer measured after 10 hrs by PAMPA assay; format: ADME; settings: read-out: Peff

With C/C=C1\[C@H]2C=C(C)C[C@]1(N)c1ccc(=O)[nH]c1C2 [HUPERZINE A] as the compound, how does the Activity [1] read?
Its Activity is “Non-Toxic”.

What about the Ratio IC50 (Rattus norvegicus [2]) of the same compound?
Its Ratio IC50 is 444.

What about the Activity [3] of the same compound?
Its Activity is “Non-Toxic”.

What about the IC50 [4] of the same compound?
Its IC50 is 36.4 µM.

And the IC50 (Acetylcholinesterase)?
Its IC50 is 0.082 µM.

With Oc1c(I)cc(Cl)c2cccnc12 as the compound, how does the inhibition [5] read?
The inhibition was “Active”.

With CCCCNC(=S)Nc1cc(-n2cccn2)ncn1 as the compound, how does the inhibition [6] read?
The inhibition was 66.6%.

And the IC50 (Acetylcholinesterase)?
Its IC50 is 23.4 µM.

Which inhibition [6] does the source give for S=C(NCc1ccccc1)Nc1cc(-n2cccn2)ncn1 here?
Its inhibition is 17.3%.

For CCNC(=S)Nc1cc(-n2cnc(CO)c2)ncn1, which IC50 (Acetylcholinesterase) is on record?
Its IC50 is 0.995 µM.

For CCNC(=S)Nc1cc(-n2ccnc2C)ncn1, which IC50 (Acetylcholinesterase) is on record?
Its IC50 is 6.1 µM.

For CCNc1cc(-n2cccn2)ncn1, which inhibition [6] is on record?
Its inhibition is 32.1%.

Which inhibition [6] does the source give for CCNC(=S)Nc1cc(-n2cccc2)ncn1 here?
The inhibition was 13.8%.

And the IC50 (Acetylcholinesterase)?
The IC50 was > 40 µM.

What does the source list for CCNC(=S)Nc1nccc(-n2ccnc2)n1?
inhibition [6]: 64.9%; IC50 (Acetylcholinesterase): 8.45 µM

Which results are given for CCNC(=S)Nc1cc(-n2cnc(CNCc3ccccc3)c2)ncn1?
Ratio IC50 (Rattus norvegicus [2]): > 146; inhibition (Rattus norvegicus [7]): 48%; IC50 [4]: > 40 µM; IC50 (Acetylcholinesterase): 0.274 µM; Activity (umolequiv/umol) [8]: 1.3

For COc1cc2c(cc1OC)C(=O)C(CC1CCN(Cc3ccccc3)CC1)C2 (configuration not stated) [DONEPEZIL], which Activity [1] is on record?
Its Activity is “Toxic”.

What about the Activity [3] of the same compound?
Its Activity is “Non-Toxic”.

What does the source list for CCNC(=S)Nc1cc(-n2cnc(CN3CCN(C)CC3)c2)ncn1?
Ratio IC50 (Rattus norvegicus [2]): > 388; inhibition (Rattus norvegicus [7]): 10.8%; IC50 [4]: > 40 µM; Papp at 10 h [9]: 1.95 ×10⁻⁶ cm/s; IC50 (Acetylcholinesterase): 0.103 µM; Activity (umolequiv/umol) [8]: 1.23

Which IC50 (Acetylcholinesterase) does the source give for CCNC(=S)Nc1cc(-n2cnc(C)c2)ncn1 here?
The IC50 was 3.25 µM.

For CCNC(=S)Nc1cc(-n2cncn2)ncn1, which inhibition [6] is on record?
Its inhibition is 66.6%.

What about the IC50 (Acetylcholinesterase) of the same compound?
Its IC50 is 1.05 µM.

Which IC50 (Acetylcholinesterase) does the source give for CCNC(=S)Nc1cc(-n2cnc(I)c2)ncn1 here?
The IC50 was 0.636 µM.

Which inhibition [6] does the source give for S=C(NCc1cccc(Cl)c1)Nc1cc(-n2cccn2)ncn1 here?
The inhibition was 0%.

Which Ratio IC50 (Rattus norvegicus [2]) does the source give for CCNC(=S)Nc1cc(-n2cnc(CNC)c2)ncn1 here?
The Ratio IC50 was > 159.

And the inhibition (Rattus norvegicus [7])?
Its inhibition is 27.3%.

What about the IC50 [4] of the same compound?
The IC50 was > 40 µM.

And the IC50 (Acetylcholinesterase)?
The IC50 was 0.251 µM.

And the Activity (umolequiv/umol) [8]?
Its Activity (umolequiv/umol) is 1.32.

Which Ratio IC50 (Rattus norvegicus [2]) does the source give for CCNCc1cn(-c2cc(NC(=S)NCC)ncn2)cn1 here?
The Ratio IC50 was > 117.

What about the inhibition (Rattus norvegicus [7]) of the same compound?
Its inhibition is 21.5%.

What about the IC50 [4] of the same compound?
The IC50 was > 40 µM.

What about the IC50 (Acetylcholinesterase) of the same compound?
Its IC50 is 0.342 µM.

What about the Activity (umolequiv/umol) [8] of the same compound?
Its Activity (umolequiv/umol) is 1.33.

For CCNC(=S)Nc1cc(-n2ccnc2)ncn1, which inhibition [6] is on record?
Its inhibition is 72.8%.

What about the IC50 (Acetylcholinesterase) of the same compound?
The IC50 was 1.59 µM.

Which inhibition [6] does the source give for CCNC(=S)Nc1ncnc(-n2ccnc2)c1C here?
The inhibition was 45.9%.

What about the IC50 (Acetylcholinesterase) of the same compound?
Its IC50 is > 40 µM.

Which inhibition [6] does the source give for CCNC(=S)Nc1nc2c(c(-n3ccnc3)n1)CCC2 here?
The inhibition was 24.4%.

And the IC50 (Acetylcholinesterase)?
Its IC50 is > 40 µM.

Which IC50 (Acetylcholinesterase) does the source give for CCNC(=S)Nc1cc(-n2cnc(Br)c2)ncn1 here?
Its IC50 is 0.975 µM.

Which results are given for CCNC(=S)Nc1cc(N2CCCC2)ncn1?
inhibition [6]: 39.2%; IC50 (Acetylcholinesterase): > 40 µM

What does the source list for CCNC(=S)Nc1cc(-n2cnc(CN3CCCCC3)c2)ncn1?
Ratio IC50 (Rattus norvegicus [2]): 164; IC50 [4]: 18.2 µM; Papp at 10 h [9]: 5 ×10⁻⁶ cm/s; IC50 (Acetylcholinesterase): 0.111 µM; Activity (umolequiv/umol) [8]: 1.27

For CNC(=S)Nc1cc(-n2cccn2)ncn1, which inhibition [6] is on record?
The inhibition was 46%.

With CCNC(=S)Nc1cc(NCc2ccccc2)ncn1 as the compound, how does the inhibition [6] read?
The inhibition was 10.9%.

And the IC50 (Acetylcholinesterase)?
The IC50 was > 40 µM.

For CCNC(=S)Nc1cc(N2CCN(C)CC2)ncn1, which inhibition [6] is on record?
Its inhibition is 70.1%.

And the IC50 (Acetylcholinesterase)?
The IC50 was 3.26 µM.

For CCNC(=S)Nc1cc(-n2cnc(Cl)c2)ncn1, which IC50 (Acetylcholinesterase) is on record?
Its IC50 is 0.615 µM.

Which IC50 (Acetylcholinesterase) does the source give for CCNC(=S)Nc1cc(-n2ccnc2CC)ncn1 here?
Its IC50 is 6.7 µM.

With S=C(Nc1cc(-n2cccn2)ncn1)NC1CCCCC1 as the compound, how does the inhibition [6] read?
The inhibition was 11.2%.

With CCCc1cc(-n2cccn2)ncn1 as the compound, how does the inhibition [6] read?
The inhibition was 9.88%.
